The results in this text go back to US20240116985A1, “STAPLED PEPTIDES AND METHODS THEREOF” (priority 2020, published 2024).

This assay deals with T1, full-length beta-Catenin (Uniprot ID P35222) (Homo sapiens, UniProt P35222).
T1 construct: 10 nM full-length beta-Catenin (Uniprot ID P35222)
T1 sequence (P35222 1-781): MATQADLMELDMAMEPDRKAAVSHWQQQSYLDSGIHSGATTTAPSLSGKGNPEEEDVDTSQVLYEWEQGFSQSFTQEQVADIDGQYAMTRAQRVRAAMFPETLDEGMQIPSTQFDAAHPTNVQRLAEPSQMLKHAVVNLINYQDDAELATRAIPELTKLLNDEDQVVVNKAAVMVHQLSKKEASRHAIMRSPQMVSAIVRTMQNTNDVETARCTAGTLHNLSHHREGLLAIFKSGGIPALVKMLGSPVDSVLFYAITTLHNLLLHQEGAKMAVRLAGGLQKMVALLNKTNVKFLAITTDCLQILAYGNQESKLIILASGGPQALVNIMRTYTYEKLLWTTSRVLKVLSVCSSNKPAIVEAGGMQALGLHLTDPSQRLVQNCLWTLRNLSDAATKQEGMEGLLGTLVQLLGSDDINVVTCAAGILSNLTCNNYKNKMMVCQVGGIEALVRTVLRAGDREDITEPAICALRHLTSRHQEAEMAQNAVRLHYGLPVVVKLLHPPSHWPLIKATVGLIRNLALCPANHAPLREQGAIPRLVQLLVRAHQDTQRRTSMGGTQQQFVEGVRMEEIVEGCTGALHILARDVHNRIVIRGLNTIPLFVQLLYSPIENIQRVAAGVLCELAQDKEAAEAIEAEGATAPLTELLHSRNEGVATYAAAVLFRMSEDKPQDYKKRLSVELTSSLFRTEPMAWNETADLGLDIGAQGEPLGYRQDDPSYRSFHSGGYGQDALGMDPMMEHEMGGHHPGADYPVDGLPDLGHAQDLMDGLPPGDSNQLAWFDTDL
Kind of assay: Fluorescence polarization IC50 (beta-catenin / 5FAM-TCF4 10-53 competition). As to conditions: fluorescence polarization; read-out: beta-Catenin FP IC50. It counts as binding. Background: In fluorescence polarisation assays a small probe gives low polarisation when free and higher when bound to something large.
In general, IC50 refers to the concentration that gives 50% inhibition. As for `CC(=O)N1CCC[C@]12CC=CCCCC1(CCCC=CCCCOC(=O)N3CC[C@@](C(=O)N[C@@H](Cc4ccsc4)C(=O)N[C@@H](Cc4csc5ccccc45)C(=O)N[C@@H](Cc4ccccc4)C(N)=O)(C3)NC(=O)[C@H](CC(N)=O)NC(=O)[C@H](Cc3ccccc3)NC(=O)[C@H](C)NC(=O)C(C)(C)NC(=O)[C@H]([C@@H](C)O)NC(=O)[C@H](CC(N)=O)NC1=O)NC(=O)[C@H](CC(C)(C)C)NC(=O)[C@H](CC(=O)O)NC2=O` (stereo partly drawn) [I-2412, Ac-PL3-Asp-Npg-B5-Asn-Thr-Aib-Ala-Phe-Asn-PyrS2-3Thi-BztA-Phe-NH2], the IC50 is 267 nM.

Consider `CC(=O)N1CCC[C@]12CC=CCCCC1(CCCC=CCCCOC(=O)N3CC[C@@](C(=O)N[C@@H](Cc4ccccc4)C(=O)N[C@@H](Cc4csc5ccccc45)C(=O)N[C@@H](CCCCN)C(N)=O)(C3)NC(=O)[C@H](CC(C)C)NC(=O)[C@H](Cc3ccccc3)NC(=O)[C@H](C)NC(=O)[C@H](CC(N)=O)NC(=O)[C@H](CCC(N)=O)NC(=O)[C@H](CC(=O)O)NC1=O)NC(=O)[C@H](CC1CCCCC1)NC(=O)[C@H](CC(N)=O)NC2=O` (stereo partly drawn) [I-2420, Ac-PL3-Asn-Cha-B5-Asp-Gln-Asn-Ala-Phe-Leu-PyrS2-Phe-BztA-Lys-NH2], for which the IC50 is 2120 nM.

In the case of `CC(=O)N1CCC[C@]12CC=CCCCC1(CCCC=CCCCOC(=O)N3CC[C@@](C(=O)N[C@@H](Cc4ccccc4)C(=O)N[C@@H](Cc4csc5ccccc45)C(=O)N[C@@H](CCCCN)C(N)=O)(C3)NC(=O)[C@H](CC(C)C)NC(=O)[C@H](Cc3ccccc3)NC(=O)[C@H](C)NC(=O)[C@H](CO)NC(=O)[C@H](CCC(N)=O)NC(=O)[C@H](CC(=O)O)NC1=O)NC(=O)[C@H](CC1CCCCC1)NC(=O)[C@H](CC(N)=O)NC2=O` (stereo partly drawn) [I-2422, Ac-PL3-Asn-Cha-B5-Asp-Gln-Ser-Ala-Phe-Leu-PyrS2-Phe-BztA-Lys-NH2], the IC50 is 3360 nM.

With `CC(=O)N1CCC[C@]12CC=CCCCC1(CCCC=CCCCOC(=O)N3CC[C@@](C(=O)N[C@@H](Cc4ccccc4)C(=O)N[C@@H](Cc4csc5ccccc45)C(=O)N[C@@H](CCCCN)C(N)=O)(C3)NC(=O)[C@H](CC(C)C)NC(=O)[C@H](Cc3ccccc3)NC(=O)[C@H](C)NC(=O)[C@H](CCCN3CCOCC3)NC(=O)[C@H](CCC(N)=O)NC(=O)[C@H](CC(=O)O)NC1=O)NC(=O)[C@H](CC1CCCCC1)NC(=O)[C@H](CC(N)=O)NC2=O` (stereo partly drawn) [I-2427, Ac-PL3-Asn-Cha-B5-Asp-Gln-MorphNva-Ala-Phe-Leu-PyrS2-Phe-BztA-Lys-NH2], the IC50 worked out at 757 nM.

Regarding `CC(=O)N1CCC[C@]12CC=CCCCC1(CCCC=CCCCOC(=O)N3CC[C@@](C(=O)N[C@@H](Cc4ccccc4)C(=O)N[C@@H](Cc4csc5ccccc45)C(=O)N[C@@H](CCCN4CCOCC4)C(N)=O)(C3)NC(=O)[C@H](CC(C)C)NC(=O)[C@H](Cc3ccccc3)NC(=O)[C@H](C)NC(=O)[C@H](CCCCNC(C)C)NC(=O)[C@H](CCC(N)=O)NC(=O)[C@H](CC(=O)O)NC1=O)NC(=O)[C@H](CC1CCCCC1)NC(=O)[C@H](CC(N)=O)NC2=O` (stereo partly drawn) [I-2428, Ac-PL3-Asn-Cha-B5-Asp-Gln-iPrLys-Ala-Phe-Leu-PyrS2-Phe-BztA-MorphNva-NH2], the IC50 is 401 nM.

For `CCCc1cn(CCCC[C@H](NC(=O)[C@H](CO)NC(=O)[C@H](Cc2csc3ccccc23)NC(=O)[C@H](Cc2ccccc2C(F)(F)F)NC(=O)[C@]23CCN(C2)C(=O)OCCCC=CCCCC2(CCCC=CC[C@]4(CCCN4C(C)=O)C(=O)N[C@@H](CC(=O)O)C(=O)N[C@@H](CC(C)(C)C)C(=O)N2)C(=O)N[C@@H](CC(=O)O)C(=O)N[C@@H](Cc2cccc(C(=O)O)c2)C(=O)N[C@@H](C)C(=O)N[C@@H](C)C(=O)N[C@@H](Cc2ccccc2)C(=O)N[C@@H](CC(C)C)C(=O)N3)C(N)=O)nn1` (stereo partly drawn) [I-2432, Ac-PL3-Asp-Npg-B5-Asp-3COOHF-Ala-Ala-Phe-Leu-PyrS2-2F3MeF-BztA-Ser-[3C]TriAzLys-NH2], the IC50 was 60 nM.
